One compound from US20210030796A1, “METHOD FOR PRODUCING ANTIGEN-SPECIFIC T CELLS” (Thyas Co. Ltd., priority 2019, published 2021) can be followed below.

For experiment [1], the system named is mononuclear cells from peripheral blood of a healthy subject (CD137+ T cells). Description: T cell activation by EBV-LMP2A antigenic peptide stimulation, CD137 flow cytometry. The following applies: addition of CMA (0.3 to 3 μM per Example 1), two samples of PBMC from a healthy subject. The format is cell-based, human. How it is done: Re-inoculate in a 24-well plate. Add 0.3 to 3 μM Concanamycin A to a medium and incubate at 37° C. and 5% CO2 for 2 hours. Add 10 μg/ml EBV LMP2A peptide and culture at 37° C. and 5% CO2 for 24 hours. Suspend 2×10^6 cells of peripheral blood mononuclear cells (PBMC) separated from peripheral blood of a healthy subject in a MEM-alpha medium added with 10% FBS, 200 U IL-2 and 20 μg/ml IL-15, and add 10 μg/ml EBV LMP2A peptide. Start culturing at 37° C. and 5% CO2. Replace the medium and divide the wells every 2 to 5 days according to amplification rate of the cells. Culture for 12 days. Collect the cells on day 12 and re-inoculate in a 24-well plate at 2×10^6 cells/well. Add 0.3 to 3 μM Concanamycin A to the medium and incubate at 37° C. and 5% CO2 for 2 hours. Then, add 10 μg/ml EBV LMP2A peptide and culture at 37° C. and 5% CO2 for 24 hours. After 24 hours, stain the cells with CD8-PerCP/Cy5.5 antibody and CD137-PE antibody, and analyze using a flow cytometer (BD FACS Aria II).

Experiment [2] has as its system mononuclear cells from peripheral blood of a leukemia patient (CD137-expressing T cells). The experiment can be described thus: T cell activation by WT1 antigenic peptide stimulation, CD137 expression. The class given is cell-based, human. The following applies: FIG. 3; medium added with 1 μM CMA; two samples of PBMC from a leukemia patient.

As to `C/C=C/[C@H]1O[C@@](O)([C@@H](C)[C@H](O)[C@H](C)[C@H]2OC(=O)/C(OC)=C/C(C)=C/[C@@H](C)[C@@H](O)[C@@H](CC)[C@@H](O)[C@H](C)C/C(C)=C/C=C/[C@@H]2OC)C[C@@H](O[C@H]2C[C@@H](O)[C@H](OC(N)=O)[C@@H](C)O2)[C@@H]1C` [Concanamycin A], the “percentage of CD137+ T cells activated with EBV-LMP2A peptide” value in experiment [1] (FIG. 1) was “increased”. For the same compound, in experiment [1] (FIG. 2), the “number of CD137+ T cells activated with EBV-LMP2A peptide” value was “increased”. Moreover, in experiment [2], the “percentage of T cells activated (CD137-expressing) by WT1 peptide stimulation” value was “induced”.
